# Measurements published in the METLIN SMRT retention time set (Domingo-Almenara et al. 2019).
# Experiment: gradient 5% acetonitrile 3 min, to 50% in 2 min, to 85% in 15 min, held 3 min, 100 µL/min
# Settings: column: Zorbax Extend-C18 2.1 x 50 mm; eluents: water / acetonitrile, 0.1% formic acid
# How it was run: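 The system's dead and dwell volumes were 40 μL and 900 μL, with a Zorbax Extend-C18 column (2.1 × 50 mm, 1.8 μm) run at 100 μL/min in water and acetonitrile containing 0.1% formic acid each. Pure standards were analyzed in mixtures of ~100 molecules by HPLC–quadrupole time-of-flight mass spectrometry in positive and negative ionization mode. Retention time was assigned from computationally picked, manually inspected adduct peaks.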
row,SMILES,RP-LC retention time [s]
1,Cc1cc(Nc2ccccc2)nc(N2CCN(C(=O)Nc3cccc(Cl)c3)CC2)n1,763
2,Cc1ccc(CNc2ccc3[nH]c(=O)[nH]c3c2)cc1,579
3,COCCCNC(=O)C1(C)CCC(=O)N1CCc1c[nH]c2ccccc12 (centres undefined),668
4,O=C(NCCc1cccs1)C1CCCN(c2nc3ccsc3c(=O)n2Cc2ccc(F)cc2)C1 (centres undefined),936
5,CCOc1ccc(-c2[nH]ncc2CN2CCC3(CC2)CC(C)(O)CCO3)cc1 (centres undefined),596
6,COc1ccc(C(C)NC(=O)C2c3ccccc3CCN2C(=O)C2CC2)cc1OC (centres undefined),802
7,CCc1nc2cc(N3CCCC(C(=O)NCCN4CCOCC4)C3)cnc2nc1CC (centres undefined),594
8,Cc1ccc(-n2cc3c(N4CCCC(C(=O)NCc5ccc(F)cc5F)C4)ncnc3n2)cc1 (centres undefined),729
9,O=C(c1ccncc1)N1CCCn2nc(-c3ccc(Cl)cc3)cc2C1,719
10,CCC(=O)N1CCc2[nH]nc(C(=O)NCCCc3ccccc3)c2C1,709
11,CC(=O)N1CCc2sc(C(=O)NCc3ccc4c(c3)OCO4)cc2C1,682
12,COc1ccc(OCc2nc(-c3ccc4oc(C)nc4c3)no2)cc1,984
13,COC(=O)c1ncn2c1C(=O)N(Cc1ccccc1F)C(C)(C(=O)NC1CCCCCC1)C2 (centres undefined),816
14,COc1ccc(NC(=O)c2cnc(N3CCN(C(C)=O)CC3)nc2N)cc1,601
15,CCC(C)NC(=O)C1CCN(S(=O)(=O)c2c(C)nn(-c3ccccc3)c2C)CC1 (centres undefined),830
16,O=C(CN1CCc2ccccc2C1C(=O)N1CCCCC1)NCc1ccc(F)c(Cl)c1 (centres undefined),936
17,Fc1ccc(-c2csc(Cc3nc(-c4ccc(Cl)cc4)no3)n2)cc1,1310
18,Cc1nc(NCCC2=CCCCC2)nc(N2CCOCC2)c1[N+](=O)[O-],965
19,Cc1oc(-c2[nH]ncc2C(=O)N2CCCC2)cc1S(=O)(=O)NCc1ccccc1Cl,715
20,O=C(c1ccnc(-c2cccs2)c1)N1CCN(c2ncccn2)CC1,749
21,COCCCNC(=O)Cn1c(=O)c(S(=O)(=O)c2ccccc2)cc2ccccc21,705
22,Cc1ccc(NS(=O)(=O)c2cc(-c3[nH]ncc3C(=O)N(C)C)oc2C)c(Cl)c1,707
23,CCOc1ccc(-c2cc3c(=O)n(Cc4nc(-c5cccc(Br)c5)no4)ncn3n2)cc1,1280

row,SMILES,RP-LC retention time [s]
1,O=C(NCc1cccs1)C1CCN(S(=O)(=O)c2cc(-c3noc(C4CC4)n3)cs2)CC1,910
2,Cc1ccc(-n2c(=O)c3sccc3n(Cc3nc(-c4ccccc4)no3)c2=O)cc1,985
3,O=C(Nc1ccccc1Cl)NC1CCCN(c2cc(-c3ccncc3)[nH]n2)C1 (centres undefined),582
4,Cc1cc(C(=O)NC2CCCCC2)nn1C,755
5,Cc1ccc(CNCc2ccc3c(c2)n(C)c(=O)n3C)cc1,619
6,O=C(NC1CC1)C1CC(=O)N(c2ccc3c(c2)CCN3C(=O)C2CCC2)C1 (centres undefined),660
7,C=CCNC(=O)c1cn(-c2cc(-c3nc(C)no3)ccn2)cn1,711
8,CN(C)CC(=O)N1CCc2[nH]nc(-c3ccc(F)cc3)c2C1,588
9,COc1ccc(-c2noc(-c3cccn(CC(=O)Nc4ccc5c(c4)OCO5)c3=O)n2)cc1OC,741
10,COc1ccc(Br)c2c1-c1nc(NC(=O)c3ccc(F)cc3)sc1C2,1170
11,CC(CCc1ccccc1)NC(=O)c1cc2sccc2n1Cc1ccc(Cl)cc1 (centres undefined),1260
12,Cc1nc(N2CCN(C(=O)c3ccccc3)CC2)c(C#N)c2c1COC(C)(C)C2,941
13,COCCN1C(=O)c2ccccc2C(C(=O)N2CCN(c3ccccn3)CC2)C1c1ccc(F)cc1 (centres undefined),619
14,Cc1ccc(C(=O)NCCc2c[nH]c3ccc(F)cc23)cc1,841
15,CCc1cccc(C)c1NC(=O)C1CCN(S(C)(=O)=O)c2ccccc2O1 (centres undefined),880
16,CCNC(=O)N(CCCOC)CC(=O)N1CCc2sccc2C1COc1ccc(Cl)c(C)c1 (centres undefined),965
17,Cc1ccc(Nc2ncccc2C(=O)O)cc1C,707
18,O=C(c1ccco1)N1CCC(n2c(-c3ccoc3)nc3cccnc32)C1 (centres undefined),650
19,CCOC(=O)C1=C(CNc2ccc(C)c(Cl)c2)NC(=O)NC1c1ccc2c(c1)OCO2 (centres undefined),897
20,O=C(c1ccc(Cn2cncn2)cc1)N1CCN(c2ccc(Cl)cc2)CC1,774
21,Cc1ccc(N2C(=O)C3N=NN(Cc4nc(-c5cccc(C(F)(F)F)c5)no4)C3C2=O)cc1 (centres undefined),1080
22,CC(C)C(=O)N1CCN(c2ccc(=O)n(-c3ccc(Cl)cc3)n2)CC1,767
23,CC1CCN(S(=O)(=O)c2ccc3nn(Cc4ccccc4Cl)c(=O)n3c2)CC1,1040

row,SMILES,RP-LC retention time [s]
1,O=C(c1ccc(Cl)cc1)N1CCc2cc(CNS(=O)(=O)Cc3ccccc3)ccc21,981
2,O=C1NC(=O)c2c(NC(=O)C3(c4ccc(Cl)cc4)CCCC3)cccc21,1060
3,CCCc1ccc(S(=O)(=O)N2C[C@@H]3C(=O)N(C(CC)c4cccs4)C(=O)[C@@H]3C2)cc1 (some centres undefined),1160
4,CCc1noc(NC(C)=O)c1-c1ccc(OC)c(S(=O)(=O)N2CCCCCC2)c1,817
5,Cc1ccc(NC(=O)Cn2cc3c(n2)CCC(C)C3)cc1C (centres undefined),969
6,CCc1csc(-c2ccc(N3CCN(C(=O)c4nn(C)c5ccccc45)CC3)nc2)n1,966
7,NC(=O)c1c(NC(=O)C2CCCN(C(=O)C3CCCC3)C2)sc2c1CCCC2 (centres undefined),866
8,CC(C)C(=O)N1C[C@@H](F)C[C@H]1C(=O)N1CCc2ccccc2C1,683
9,O=C1Cc2cc(NC(=O)Nc3ccc(Cl)c(Cl)c3)ccc2N1,742
10,COC(=O)c1c(C)[nH]c(C(=O)N2CCCC(C(=O)N3CCCC3)C2)c1C (centres undefined),663
11,COc1ccc(NC(=O)N2[C@H]3CC[C@@H]2c2cnc(-c4ccccc4)nc2C3)c(OC)c1,894
12,COc1cccc(Cn2c(=O)c3sccc3n(Cc3nc(-c4ccccc4)no3)c2=O)c1,1000
13,COc1ccccc1NC(=O)C1CCc2nc(N3CCCCC3)ncc2C1 (centres undefined),811
14,CCN1CCC(N(Cc2cccs2)C(=O)Nc2cc(OC)cc(OC)c2)CC1,651
15,CSc1ccc(CNC(=O)CC2c3ncccc3C(=O)N2c2ccccc2)cc1 (centres undefined),752
16,CCOc1cncc(C(=O)N2CCCCC2C)c1 (centres undefined),725
17,c1ccc(OCc2nc(-c3cccc(-c4csc(C5CC5)n4)c3)no2)cc1,1330
18,CCCn1c(=O)oc2cc(NC(=O)NCC(=O)OCC)ccc21,703
19,Cc1ccc2ncn(C3CCN(C(=O)Nc4ccc(F)cc4F)CC3)c(=O)c2c1,770
20,CCOc1cccc(C2CC(c3ccccc3)=NC3(CCN(C(C)C)CC3)N2)c1O (centres undefined),612
21,CCCC(=O)Nc1ccc(-n2cnc(C(=O)N3CCSCC3)c2)nc1,671
22,O=C(c1ccccc1Cl)N(CCc1ccccc1)Cc1ccccn1,790
23,NS(=O)(=O)c1ccc(CCNc2nnnc3c2cnn3-c2ccccc2)cc1,814

row,SMILES,RP-LC retention time [s]
1,Cc1cc(N2CCN(C)CC2)nc2ccc(NC(=S)N(C)Cc3ccccc3)cc12,592
2,CCCCNC(=O)C1CC(=O)N(CCc2c[nH]c3ccc(Cl)cc23)C1 (centres undefined),761
3,COc1cccc2cc(C(=O)Nc3nnc(Cc4ccc(Cl)s4)o3)oc12,860
4,O=C(NCc1cccs1)C1CCCN(c2nc3ccccc3n(Cc3ccccc3)c2=O)C1 (centres undefined),1100
5,CCCN1C(=O)c2cc(C(=O)N3CCCCCC3)nn2CC1(C)C(=O)NC1CCCC1 (centres undefined),803
6,COc1ccccc1NC(=O)Cn1nc2c(N(C)C3CCCCC3)nccn2c1=O,778
7,COc1ccc(CN2C=C(C(=O)OCc3noc(-c4cccc(F)c4)n3)C(C)=NS2(=O)=O)cc1,1050
8,O=C(NCCc1c[nH]c2ccccc12)C1CCN(c2nc3ccccc3[nH]2)CC1,615
9,O=S(=O)(NCc1ccco1)c1cc(-c2nnc(-c3ccccc3)o2)ccc1F,902
10,CN1C(=O)Cc2ccccc2C1C(=O)N1CCN(c2ccc(Cl)cc2)CC1 (centres undefined),854
11,Cc1nc(N)nc(Nc2ccc(C#N)cc2)c1Br,658
12,Cc1cccc(C(=O)Nc2cc(-c3cccs3)no2)c1,1000
13,CC1(C(=O)NCCCN2CCc3ccccc3C2)CCCCC(=O)N1 (centres undefined),578
14,c1ccc2[nH]c(-c3ccncc3)nc2c1,624
15,CCCn1cc(CCNS(=O)(=O)c2ccc(F)cc2Cl)c2cccnc21,877
16,CC(C)CNC(=O)C1COC2(CCCCC2)N1C(=O)c1ccccc1C(F)(F)F (centres undefined),938
17,Cc1ccc2c(=O)c(C(=O)N3CCCCC3)cn(CC(=O)NCc3ccccc3)c2n1,753
18,O=C(Cc1ccc(NC(=O)c2ccncc2)cc1)NC1CC1,547
19,CCOC(=O)N1CCC2(CC1)N=C(c1ccc(Cl)cc1)CC(c1cccc(OCC)c1O)N2 (centres undefined),871
20,CCOc1ccc(NC(=O)CN2C(=O)CCc3cc(Br)ccc32)cc1,926
